This is an account of results in PubChem BioAssay AID463203 (Broad Institute, 2010).

Structures are written as SMILES. Active and inactive are the calls of the source.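 The calls were made as follows: active = more than half of replicate measurements showing over 20% loss of kinase signal relative to plate controls; inconclusive = some but at most half of replicates over 20% loss; inactive = no replicate over 20% signal loss.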 Where only a bound is given, the exact number is not on record here.

This experiment has as its target Glycogen synthase kinase-3 alpha (Homo sapiens) (UniProt P49840). Briefly: concentration-response blocking of human GSK3A – biochemical, luminescence, cell-free homogeneous, retest, dose response (AID 463203). As to conditions: GSK-3 alpha enzyme, ADP-Glo luminescence, 60 min. For orientation: In ADP-Glo the light output rises with the ADP produced.

Glycogen synthase kinase-3 alpha (Homo sapiens), sequence (P49840 whole entry, looked up): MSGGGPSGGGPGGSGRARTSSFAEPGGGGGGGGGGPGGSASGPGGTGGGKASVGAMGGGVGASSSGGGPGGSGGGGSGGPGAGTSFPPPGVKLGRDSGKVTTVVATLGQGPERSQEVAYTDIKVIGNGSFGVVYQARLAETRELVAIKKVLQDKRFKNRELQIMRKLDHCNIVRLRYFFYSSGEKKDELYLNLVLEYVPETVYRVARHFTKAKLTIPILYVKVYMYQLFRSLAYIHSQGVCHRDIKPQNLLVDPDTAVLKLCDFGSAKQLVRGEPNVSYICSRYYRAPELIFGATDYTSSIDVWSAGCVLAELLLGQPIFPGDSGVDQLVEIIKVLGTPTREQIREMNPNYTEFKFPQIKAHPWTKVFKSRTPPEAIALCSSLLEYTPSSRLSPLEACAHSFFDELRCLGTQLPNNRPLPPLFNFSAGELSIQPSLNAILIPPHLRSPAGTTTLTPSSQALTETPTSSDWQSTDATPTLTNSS

For the compound `Cc1sc2ncnc(NCc3cccs3)c2c1C`, the AC50 (in general, the midpoint of the concentration-response curve, whichever way the signal moves) was > 30 µM (inactive).

Consider `CC1CCCN(Cc2c(O)ccc3c2O/C(=C\c2ccco2)C3=O)C1` (stereo unspecified), for which the AC50 is 9.29 µM.

Consider `CNS(=O)(=O)c1cccc(C(=O)OCC(=O)Nc2ccc(Cl)cn2)c1`, for which the AC50 is 6.77 µM.

On to `CCN1C(=O)/C(=C/c2cccs2)N(C)C1=S`, for which the AC50 was > 30 µM (inactive).

Take `CCOC(=O)CC1COc2ccccc2N1C(=O)c1ccc(C)cc1` (stereo unspecified): the AC50 was > 30 µM (inactive).

`COc1ccc(NC(=O)CSc2nc3[nH]ncc3c(=O)n2-c2ccccc2OC)cc1OC`: the AC50 was > 30 µM (inactive).

On to `CC1(C)CC(=O)C(C2c3ccccc3S(=O)(=O)c3ccccc32)C(=O)C1`, for which the AC50 was > 30 µM (inactive).

For the compound `Cc1cccc(C)c1OCC(=O)Nc1ccc2c(c1)C(=O)NC2=O`, the AC50 is 22.5 µM.

As for `CSc1ccc(CN2CCN(Cc3ccc([N+](=O)[O-])cc3)CC2)cc1`, the AC50 was > 30 µM (inactive).

Consider `O=c1c(O)c(-c2cc(O)c(O)c(O)c2)oc2cc(O)cc(O)c12`, for which the AC50 was 4.13 µM.

Take `CC1(C)CC(=O)c2cnc(NCC3CCCO3)nc2C1` (stereo unspecified): the AC50 was > 30 µM (inactive).

Consider `COC1(OC)N=C(NC(=O)Nc2ccccc2)C2(C#N)C(c3ccccc3)C12C#N` (stereo unspecified), for which the AC50 is > 30 µM (inactive).

As to `O=C(Cc1c(F)cccc1Cl)Nc1ncc([N+](=O)[O-])s1`, the half-maximal activity concentration (AC50) was 2.43 µM.

Consider `COc1ccc(C(=O)c2c(C(F)(F)F)oc3c2C(=O)c2ccccc2C3=O)cc1`, for which the AC50 was > 30 µM (inactive).

For the compound `CN1CCCN(C(=O)CC(c2ccccc2)c2ccccc2)CC1`, the AC50 was > 30 µM (inactive).

As to `CCN(CC)CCCN(Cc1cc2cc3c(cc2[nH]c1=O)OCO3)C(=O)Nc1ccccc1OC`, the AC50 was > 30 µM (inactive).

On to `COc1cccc(/C=C2\SC(=O)NC2=O)c1OCc1ccc(C(=O)O)cc1`, for which the concentration at half-maximal activity (AC50) is 26.9 µM.

As to `Nc1c(C(=O)O)cnc2c(-c3ccc(Cl)cc3)cnn12`, the AC50 is 15.8 µM.

Turning to `COc1ccc(-c2cc(C(F)(F)F)nc(SCC(=O)NCc3cccs3)n2)cc1OC`, the AC50 was > 30 µM (inactive).

Consider `O=[N+]([O-])c1cnccc1NC1CCCCC1`, for which the AC50 is > 30 µM (inactive).

For the compound `O=c1ccc2ccccc2o1`, the AC50 was > 30 µM (inactive).

Turning to `COc1cc2c(ccc3cc(OC)c(OC)c(O)c32)cc1O`, the AC50 is 20.8 µM.

With `COC(=O)CCCNc1ncccc1[N+](=O)[O-]`, the AC50 was > 30 µM (inactive).

`CCOC(=O)c1sc(NC(=O)C2CCC2)cc1C`: the AC50 is > 30 µM (inactive).

As to `O=C(CN(Cc1ccco1)C(=O)CCC(=O)Nc1ccccn1)NCc1ccccc1`, the AC50 was > 30 µM (inactive).

For `CCCCCCCCCCOC(=O)Cn1c(COc2ccc(OC)cc2)[n+](C)c2ccccc21`, the AC50 was > 30 µM (inactive).

As for `Cc1ccc(OCC(=O)NNC(=O)C(C)Sc2ncnc3sc(C)c(C)c23)cc1` (stereo unspecified), the AC50 was > 30 µM (inactive).

On to `Fc1cccc(Nc2ncnc3sccc23)c1`, for which the AC50 is > 30 µM (inactive).

In the case of `COc1ccc(OC)c(C2=Nn3c(nnc3-c3ccncc3)SC2)c1`, the AC50 is 1.5 µM.

Consider `O=C(CSc1ccccc1)Nc1nnc(C2CC2)s1`, for which the AC50 was > 30 µM (inactive).

Turning to `CCN1CCN(c2c(Cl)cccc2NC(=O)c2cc3ccccc3o2)CC1`, the AC50 was > 30 µM (inactive).

With `Cc1csc(NC(=O)C2CCCN(S(=O)(=O)c3cnc[nH]3)C2)n1` (stereo unspecified), the AC50 was > 30 µM (inactive).

As to `COc1cccc(Cn2nnc(C(=O)Nc3cc(Cl)ccc3OC)c2N)c1`, the AC50 is > 30 µM (inactive).

In the case of `O=c1[nH]c2c(s1)C(c1ccccc1)C1C3CCC(C3)C1S2` (stereo unspecified), the AC50 is 1.98 µM.

On to `CC(=O)Nc1cccc(-c2csc(Nc3ccccn3)n2)c1`, for which the AC50 was > 30 µM (inactive).

Take `CC1(C)Oc2ccc3ccc(=O)oc3c2-c2cn[nH]c21`: the concentration at half-maximal activity (AC50) was 7.97 µM.

Regarding `CC1CCCC(C)N1C(=O)COC(=O)Cc1c[nH]c2ccccc12` (stereo unspecified), the AC50 is > 30 µM (inactive).

As to `CCC(C)[C@H](NC(=O)Nc1ccc(S(N)(=O)=O)cc1)C(=O)O` (stereo partly specified), the AC50 was > 30 µM (inactive).

On to `CCOc1cc2c(C#N)c(N3CCCC3)nc(N)c2c(N)n1`, for which the AC50 is > 30 µM (inactive).

With `COC(=O)c1ccc(CN2C(=O)NC(CC(C)C)C2=O)cc1` (stereo unspecified), the AC50 was > 30 µM (inactive).

As to `c1ccc(-c2noc(CSc3nnnn3-c3ccccc3)n2)cc1`, the AC50 was > 30 µM (inactive).

As for `O=C(c1ccc(F)cc1)c1cnc(Nc2ccccc2)s1`, the AC50 is > 30 µM (inactive).

Consider `CCOc1ccc(-c2c(C(=O)N/N=C(\C)c3cccnc3)nnn2-c2nonc2N)cc1`, for which the AC50 was > 30 µM (inactive).

As for `COc1ccc([N+](=O)[O-])cc1NC(=O)CCN1CCN(CCO)CC1`, the AC50 is > 30 µM (inactive).

Turning to `CCCCc1ccc(NC(=O)N[C@H](C(=O)O)C(C)C)cc1`, the AC50 is > 30 µM (inactive).

For `COc1cccc(/C=N/NC(=O)C(=O)N2CCCC2)c1OC`, the AC50 is > 30 µM (inactive).

Consider `O=C(c1ccc(Cl)cc1)c1cnc(Nc2ccccc2)s1`, for which the AC50 is > 30 µM (inactive).

Take `CSc1nc2n(n1)C(c1ccccn1)C1=C(CC(C)(C)CC1=O)N2` (stereo unspecified): the AC50 was > 30 µM (inactive).

As for `CCCCSc1nc(N)c(C#N)c(-c2cccs2)c1C#N`, the AC50 was > 30 µM (inactive).

For `COc1ccc(-c2noc(CSc3nc(-c4ccccc4)cc(=O)[nH]3)n2)cc1OC`, the AC50 is > 30 µM (inactive).

For `Cc1cnn(-c2cc(N/N=C/c3ccccc3)ncn2)c1`, the AC50 is > 30 µM (inactive).

With `CCOc1ccc(-n2c(SCC(=O)Nc3ccccc3C)n[nH]c2=O)cc1`, the AC50 is > 30 µM (inactive).

On to `CCOC(=O)N1CCC(NC(=O)CCc2nc(C3=CCN(C)CC3)no2)CC1`, for which the AC50 is > 30 µM (inactive).

For the compound `CCOC(=O)N1CCC(N2CCN(S(=O)(=O)c3ccc([N+](=O)[O-])cc3)CC2)CC1`, the AC50 was > 30 µM (inactive).

With `COc1ccc(C(=O)OCC(=O)Nc2c(C)n(C)n(-c3ccccc3)c2=O)cc1`, the AC50 was > 30 µM (inactive).

In the case of `O=C(CSc1ccc(F)cc1)Nc1ccc2c(c1)C(=O)NC2=O`, the AC50 is 12.5 µM.

In the case of `CC1CCCC(C)N1C(=O)COC(=O)c1c[nH]c2ccccc12` (stereo unspecified), the AC50 is > 30 µM (inactive).

Consider `O=C1c2cnc3nc(SCc4cccc(Cl)c4)nn3c2CC2c3ccccc3CCN12` (stereo unspecified), for which the AC50 is > 30 µM (inactive).

With `COc1c2ccccc2nc2ccccc12`, the AC50 is > 30 µM (inactive).

Consider `O=c1cc(-c2ccccc2)[nH]n1-c1ccc([N+](=O)[O-])cc1`, for which the AC50 was > 30 µM (inactive).

Regarding `CN(C)C(=O)Oc1ccc(OC(=O)N(C)C)cc1`, the AC50 was > 30 µM (inactive).

Take `CCCOc1cc2c(C#N)c(N3CCCC3)nc(N)c2c(N)n1`: the AC50 was > 30 µM (inactive).

As to `COc1cccc(-c2nc(-c3ccccc3)[nH]c(=O)c2C#N)c1`, the AC50 is > 30 µM (inactive).

For `C#CCOCCOCCOCCNc1nc(N2CCOCC2)nc(N2CCN(C(=O)[C@H](CCC(=O)O)n3cc([C@@H](N)CCCCN)nn3)CC2)n1`, the AC50 was > 30 µM (inactive).

Regarding `COc1cc(OC)cc(C(=O)O/N=C(\N)c2ccccn2)c1`, the AC50 is > 30 µM (inactive).

As for `CC(C)CC(=O)NC(=S)Nc1sc2c(c1C(N)=O)CCC2`, the AC50 is > 30 µM (inactive).
